# Measured values taken from patent US20260076970A1, “CANCER TREATMENT USING MTDP INHIBITORS AND PLK1 INHIBITORS” (Cardiff Oncology, Inc., priority 2022, published 2026).
# Where two headings read alike, the source gives them in different places.
# Experiments:
# [1] = pharmacologic parameters of onvansertib; format: in vivo
# [2] = biological target: PLK1 (Homo sapiens, UniProt P53350); assay: biochemical assays, panel of 296 kinases; conditions: including other PLK members
# [3] = system: SUM159 xenografts; assay: SUM159 mouse xenograft; format: in vivo; conditions: at 21 days; onvansertib 120 mg/Kg P.O. day 1 and 2 weekly or paclitaxel 10 mg/Kg I.P. day 1 weekly
# [4] = system: AML cell lines; assay: cell proliferation in AML cell lines; format: cell-based
# [5] = biological target: T1, CYP1A2 (Homo sapiens, UniProt P05177); assay: CYP inhibition in human liver microsomes; format: in vitro ADME
# T1 construct: was investigated using human liver microsomes; from tissue; host or cells: human liver microsomes
# T1 sequence (P05177 1-516): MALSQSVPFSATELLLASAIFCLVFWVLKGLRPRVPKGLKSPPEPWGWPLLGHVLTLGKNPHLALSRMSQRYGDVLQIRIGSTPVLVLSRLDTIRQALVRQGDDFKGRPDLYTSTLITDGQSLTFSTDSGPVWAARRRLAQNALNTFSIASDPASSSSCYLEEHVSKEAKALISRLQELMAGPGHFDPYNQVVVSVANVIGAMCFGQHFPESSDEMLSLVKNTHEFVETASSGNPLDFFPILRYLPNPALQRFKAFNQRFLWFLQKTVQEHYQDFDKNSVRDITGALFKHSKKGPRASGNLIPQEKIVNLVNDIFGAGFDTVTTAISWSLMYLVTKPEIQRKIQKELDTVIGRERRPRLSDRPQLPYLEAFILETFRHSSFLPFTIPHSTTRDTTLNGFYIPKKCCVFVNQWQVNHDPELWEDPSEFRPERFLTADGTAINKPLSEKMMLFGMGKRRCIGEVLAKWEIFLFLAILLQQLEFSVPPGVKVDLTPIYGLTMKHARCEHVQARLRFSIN
# From the text: (§1) In Table 1, IC50 is shown as mean±SEM (standard error of mean).
# [6] = system: patients with mCRPC; assay: onvansertib plus abiraterone in patients with mCRPC (NCT03414034); format: in vivo, human
# [7] = system: disseminated model of AML; assay: disseminated model of AML, combination with cytarabine; format: in vivo; conditions: in combination therapy with cytarabine
# [8] = system: HT29 human colon adenocarcinoma xenografts; assay: HT29 xenograft, combination with irinotecan; format: in vivo; conditions: in combination with irinotecan
# [9] = clinical; conditions: human, in vivo, po
# [10] = biological target: panel of 63 kinases other than PLK1; assay: kinase panel selectivity (63 kinases); format: biochemical
# [11] = system: CYP2C8, CYP2C9, CYP2C19, CYP2D6, CYP3A4; assay: CYP inhibition in human liver microsomes, summary over isoforms; format: in vitro ADME; conditions: range over isoforms
# From the text: as §1
# [12] = concentration for anti-tumoral activity in mice; format: in vivo
# From the text: as §1
# [13] = system: metastatic breast cancer patients; conditions: cited from earlier work
# [14] = system: patients with AML; conditions: intravenously in combination with LDAC; treatment-naïve AML; cited from earlier work
# [15] = system: patients with AML; conditions: in combination with LDAC; cited from earlier work
# [16] = system: patients with metastatic TNBC; conditions: with chemotherapy vs chemotherapy and placebo; tumors strongly positive for PD-L1 (CPS>10); cited from earlier work
# Sequence of PLK1 (P53350 whole entry): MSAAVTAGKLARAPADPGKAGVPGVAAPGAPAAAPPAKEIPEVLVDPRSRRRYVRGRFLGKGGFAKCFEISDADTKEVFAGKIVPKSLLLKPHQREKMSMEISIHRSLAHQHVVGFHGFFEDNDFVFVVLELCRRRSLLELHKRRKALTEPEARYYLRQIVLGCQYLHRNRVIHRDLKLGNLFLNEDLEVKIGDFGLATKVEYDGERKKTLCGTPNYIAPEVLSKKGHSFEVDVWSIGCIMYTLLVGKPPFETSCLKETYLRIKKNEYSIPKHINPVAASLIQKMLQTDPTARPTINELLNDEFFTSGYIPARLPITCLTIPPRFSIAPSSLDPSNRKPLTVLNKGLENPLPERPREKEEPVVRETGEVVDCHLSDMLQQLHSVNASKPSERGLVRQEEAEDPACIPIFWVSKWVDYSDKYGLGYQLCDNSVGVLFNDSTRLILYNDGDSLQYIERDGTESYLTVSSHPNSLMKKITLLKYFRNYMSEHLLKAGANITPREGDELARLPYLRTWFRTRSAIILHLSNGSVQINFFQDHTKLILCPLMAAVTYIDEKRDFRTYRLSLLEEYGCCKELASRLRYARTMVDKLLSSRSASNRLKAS
compound,measurement,setting,value
"CN1CCN(c2ccc(OC(F)(F)F)c(Nc3ncc4c(n3)-c3c(c(C(N)=O)nn3CCO)CC4)c2)CC1 [onvansertib, 1-(2-hydroxyethyl)-8-{[5-(4-methylpiperazin-1-yl)-2-(trifluoromethoxy)phenyl]amino}-4,5-dihydro-1H-pyrazolo[4,3-h]quinazoline-3-carboxamide]",half-life,[1]; in vivo,24 h
same,oral bioavailability,[1]; rodent and nonrodent species,good oral bioavailability
same,specificity for PLK1 among a panel of 296 kinases,[2],high specificity
same,"tumor growth inhibition, difference compared to controls",[3],−0.406
same,inhibition of cell proliferation,[4],nanomolar concentrations
same,inhibitory effects against CYP1A2,[5],No significant inhibitory effects
same,evaluable patients who met the primary efficacy endpoint,"[6]; 12 mg/m^2, 14+7 regimen with abiraterone, 5 evaluable",60%
same,hematological toxicities reported,"[6]; 12 mg/m^2 QD 14+7 regimen with abiraterone QD, 9 patients",no Grade 2 or higher hematological toxicities
same,evaluable patients who met the primary efficacy endpoint,"[6]; 18 mg/m^2, 5+9 regimen, 10 evaluable",30%
same,survival of animals,[7],prolonged survival
same,tumor regression compared to each agent alone,[8],enhanced tumor regression
same,half-life,[9],20 to 30 h
same,IC50,[10],> 0.5 µM
same,IC50,[11],20 to 66 µM
same,concentrations relevant to achieve significant anti-tumoral activity,[12],~1 µM
"CC(=O)O[C@H]1C(=O)[C@@]2(C)[C@H]([C@H](OC(=O)c3ccccc3)[C@]3(O)C[C@H](OC(=O)[C@H](O)[C@@H](NC(=O)c4ccccc4)c4ccccc4)C(C)=C1C3(C)C)[C@]1(OC(C)=O)CO[C@@H]1C[C@@H]2O [paclitaxel, 5β,20-Epoxy-1,2α,4,7β,10β,13α-hexahydroxytax-11-en-9-one 4,10-diacetate 2-benzoate 13-ester with (2R,3S)-N-benzoyl-3-phenylisoserine]","tumor growth inhibition, difference compared to controls",[3],−0.337
same,Grade 3 anemia,"[13]; 80 mg/m^2 weekly, 212 patients",9%
same,Grade 3 or 4 neutropenia,"[13]; 80 mg/m^2 weekly, 212 patients",15%
same,responses,[13]; 45 assessable patients with prior taxane therapy,15.6%
same,responses,[13]; 131 assessable patients with prior anthracycline therapy,17.6%
same,overall response rate,[13]; 177 assessable patients,21.5%
same,median time to progression,[13]; assessable patients,142 days
same,grade 3 neuropathy,[13]; in vivo,9%
same,grade 4 neuropathy,[13]; in vivo,no patient
same,median number of courses of therapy until development of grade 2 or 3 neuropathy,[13]; in vivo,five
same,median time to progression,[13]; no prior chemotherapy for metastatic disease,174 days
same,median time to progression,[13]; one prior regimen,140 days
same,median time to progression,[13]; two prior regimens,85 days
CC[C@@H]1C(=O)N(C)c2cnc(Nc3ccc(C(=O)N[C@H]4CC[C@H](N5CCN(CC6CC6)CC5)CC4)cc3OC)nc2N1C(C)C [volasertib],OS compared with LDAC alone,[14],significant increase in OS
same,benefit of the combination,[15],no benefit
same,risk of severe infections,[15],increased risk of severe infections
Pembrolizumab: a monoclonal antibody directed against the PD-1 receptor,reduction of the risk of death,[16],27%
